Reference: patent publication US20140322145A1, “ANTIMICROBIAL COMPOSITION” (Rohm and Haas Company, priority 2011, published 2014)

How the values were obtained:
Assay type in all cases: cell-based
[1] = test system: Escherichia coli (E. coli—ATCC #10536); assay: Automated assessment of efficacy in surfactant base (Example 4); conditions: for 15 second bactericidal efficacy in combination with thymol: at concentrations lower than their MBC in the same surfactant formulation; for MBC (minimum biocidal concentration): in 2.85% sodium cocoyl glycinate + 1.85% sodium lauroamphoacetate solution at pH 10
Protocol: In these examples, the efficacy of combinations of thymol and antimicrobial alcohols of the invention were tested in a surfactant cleansing formulation comprising 2.85% sodium cocoyl glycinate and 1.85% sodium lauroamphoacetate. This corresponds to a 50% in use dilution with water of a typical neat formulation containing 5.7% cocoyl glycinate and 3.7% % sodium lauroamphoacetate during hand washing. Solutions were prepared such that the concentrations of the surfactant components and test actives were 1.1 times the final desired concentration in order to allow for dilution with the bacterial inoculum in the test. The solutions were manually adjusted to pH 10.0 by dropwise addition of sodium hydroxide solution, as measured with a pH meter at ambient temperature. Solutions of the thymol and/or antimicrobial alcohols of the invention were prepared at a maximum of 24 hours before testing. The same thymol and antimicrobial alcohols were used as in Examples 1 and 3.
The efficacy of the combinations of the present invention was determined against the same bacterium as in Example 1, Escherichia coli (E. coli—ATCC #10536), at a concentration of approximately 1×10^8 bacteria per mL.
Tests were conducted using standard microtiter plate assays using an automated liquid handling system. 270 μl of the surfactant test solution was pipetted into each well of the microtitre plate (Nunc F Gamma Irradiated 96F untreated microtitre plates of clear polystyrene) and 30 μl of the bacterial suspension was then added. After exactly 15 seconds of bacterial exposure, a 30 μl volume of bacterial cells was withdrawn and transferred to 270 μl of D/E quench solution. After 5 minutes in the DIE quench, the optical density (OD) was measured for each plate in turn at two specific wavelengths (450 nm and 590 nm). These provide a dual check of antimicrobial activity, as the OD450 reading is specific for the yellow colour of DIE quench when bacterial growth is observed, whereas OD590 is specific for the initial purple colour of the DIE quench which is retained if no bacterial growth is observed. After the time zero OD measurements, plates were then incubated at 37° C. overnight (16 hours) before repeating the OD measurements. Delta OD values were calculated by subtracting […] at time=16 hours. Bacterial growth is observed as an increase in OD450 and a decrease in OD590. To identify antibacterially efficacious systems (those preventing appreciable bacterial growth after incubation), the following threshold changes in OD readings have been adopted: if (1). OD450 increases by less than 0.2 absorbance unit (AU) on incubation and (2). OD590 decreases by less than 0.35 AU on incubation. Conversely, where OD450 increases by more than 0.1 AU and OD590 decreases by more than 0.1 AU after incubation, corresponding to a colour shift from purple to yellow, the test system allows bacterial growth and is not deemed efficacious. Four replicate measurements in the same plate have been made for each test system. The number of replicate wells showing either bacterial growth or no growth is also readily assessed by eye by following the colour change. Thymol and terpineol were tested both alone and in combination for comparison purposes.
In each case, binary mixtures were assessed in the weight to weight ratio of thymol to antimicrobial alcohol of 1:2.5.

[2] = test system: Escherichia coli (10536 strain); assay: 15 seconds contact-time bacterial kill assay, microtitre plate, plate counts (Examples 1 and 3); conditions: for MBC of antimicrobial alcohol: alcohol alone
Protocol: The efficacies of antimicrobial agents can be usefully compared by determining the Minimum Biocidal Concentration (MBC). The MBC is defined as the lowest absolute concentration of the particular active that provides complete kill (zero bacterial growth).
Antimicrobial efficacy is tested against a representative pathogenic bacterial organism, Gram negative Escherichia coli. Concentrations of actives are expressed in terms of the percentage weight/volume (% w/v) throughout Example 1.
An overnight culture of Escherichia coli (10536 strain) was prepared in 50 ml total volume of TSB broth, grown for ca. 18 hrs at 37° C. and shaken at 150 rpm. 1 ml of this overnight E. coli culture was transferred to 50 ml of fresh TSB broth and incubated at 37° C. at 150 rpm for ca. 4 hours. This culture was separated into equal volumes and centrifuged at 4000 rpm for 15 minutes, washed with sterile saline (0.85% NaCl), centrifuged once more and re-suspended in saline to give a final concentration of 0.8 OD620 equivalent to about 10^8 cells per milliliter for this particular organism. Here, OD620 indicates the absorbance of a sample in a cuvette of 1.0 cm path length at a wavelength of 620 nm. This bacterial stock was used for assaying against antimicrobial actives (in triplicate).
The following assay describes the testing of 8 materials using 6 dilutions across half of a 96-well micro titre plate (MTP). Using this approach it is possible to assay 16 actives (without replicates) with one full dilution plate, replicating this set up in two halves of the plate columns, 1-6 and 7-12.
1M solutions of the test actives were prepared in dimethylsulphoxide (DMSO).
Aliquots (270 μl) of the materials at 1.11 times the final concentration were dispensed into the wells of the MTP along one column (A1-H1). This MTP was labelled as the “Screening plate”.
In another MTP, labelled as the “Dilution plate”, 270 μl of D/E neutralising solution from DIFCO Composition was added to column 1. The composition of the neutralising solution was as follows: pancreatic digest of casein, 5.0 g/L; Yeast Extract, 2.5 g/L; Dextrose, 10 g/L, sodium thioglycollate, 1.0 g/L, sodium thiosulphate, 6.0 g/L; sodium bisulphite. 2.5 g/L; Polysorbate 80, 5.0 g/L; lecithin 7.0 g/L; bromocresol purple, 0.02 g/L with a pH in the range 7.6±0.2.
270 μl of tryptone diluent solution was added to all the remaining wells of the Dilution MTP (columns 2-6).
Bacterial stock (30 μl) was then added to the prepared 270 μl of the solution of actives in the Screening Plate and mixed, using a multichannel pipette with 8 tips to aspirate and dispense the same volume of bacterial stock in parallel to 8 wells in rows A-H. After a contact time of 15 seconds, the mixtures were quenched by transferring 30 μl volumes of the mixtures into the 270 μl DIE neutralising solution in the prepared dilution plate, using aspiration to mix. After exactly 5 minutes in the DIE neutralising solution, 30 μl volumes were transferred from column 1 to column 2 of the Dilution MTP and mixed, before transferring further 30 μl volumes from column 2 into column 3. This process was repeated serially diluting the bacteria across the plate to column 6.
30 μl volumes from each well in the Dilution MTP were transferred onto pre-labelled segment of Tryptone Soya Agar (TSA) plates starting from the lowest bacterial concentration (highest dilution, column 6) to the highest bacterial concentration (column 1). The TSA plates were allowed to stand for ca. 2 hours so that the 30 μl inocula spots could dry and the plates were then inverted and incubated overnight at 37° C. before enumerating the bacterial colonies at the labelled dilutions to determine the effects of the actives on bacterial growth.
Mean bacterial survival numbers NMBS (expressed in Log CFU/ml) are obtained by first determining the segment of the TSA plate where the number of bacterial colonies is countable. From the colony number in this segment, NMBS is calculated by the formula: […]

[3] = test system: Escherichia coli (E. coli—ATCC #10536); assay: High resolution MBC synergy assay in phosphate buffer containing 35% dipropylene glycol (Example 2); conditions: complete kill in 15 seconds; other component 0
Protocol: In this Example, a wide range of combinations of chemicals was tested by conducting high resolution MBC assays of isocyclogeraniol in the presence of various concentrations of thymol. The materials were sourced in the same way as for Example 1. Synergy tests were conducted using standard microtiter plate assays with phosphate buffer containing 35% dipropylene glycol (DPG). […] The MBC plate was inoculated one column at a time with the test microorganism. An aliquot of the inoculated well was transferred at 15 seconds to a plate containing a neutralizing agent (D/E Neutralizing Broth), mixed and held for 5 minutes before being transferred to a growth plate containing trypticase soy broth (TSB). The TSB plate was incubated at 37° C. and read for the presence I absence of growth at 24 hours. […] This microorganism is representative of natural contaminants in many consumer and industrial applications.

[4] = Table 10, from the data in Table 9, 15 seconds

Row | SMILES | 15 second bactericidal efficacy in combination with thymol [1] | MBC (minimum biocidal concentration) [1] | MBC (minimum biocidal concentration) [2, 4] [% w/v] | MBC of antimicrobial alcohol ([2]; Table 11, 15 seconds) | MBC (minimum biocidal concentration) ([1]; listed as Isocyclogeraniol) [% w/v] | MBC (minimum biocidal concentration) ([2]; Table 4, lowest concentration giving zero bacterial survival after 15 seconds, upper boundaries) [% w/v] | MBC of antimicrobial alcohol ([2]; Table 5, 15 seconds) | MBC of component alone (MBCA, MBCB) [3] [weight %] | MBC of thymol ([2]; Table 5, thymol alone, 15 seconds) | MBC of thymol ([2]; Table 11, MBC of thymol of Example 1)
1 | CC1CCC(CO)C(C)C1 (centres unmarked) [dihydrofloralol, (2,4-dimethylcyclohexyl)methanol] | complete kill in all 4 replicates | 0.5 % w/v | 0.5 | 0.5 % (w/v) | – | – | – | – | – | –
2 | CC1=CCC(CO)C(C)C1 (centres unmarked) [floralol, (4,6-dimethylcyclohex-3-en-1-yl)methanol] | complete kill in all 4 replicates | 0.4 % w/v | 0.3 | 0.3 % (w/v) | – | – | – | – | – | –
3 | CC1=CC(C)C(CO)C(C)C1 (centres unmarked) [isocyclogeraniol, (2,4,6-trimethylcyclohex-3-en-1-yl)methanol] | complete kill in all 4 replicates | higher than the highest tested concentrations | – | – | >0.5 | 0.3 | 0.3 % (w/v) | 0.6 | – | –
4 | Cc1ccc(C(C)C)c(O)c1 [thymol, 2-isopropyl-5-methylphenol] | – | – | – | – | – | – | – | 0.5 | 0.05 % (w/v) | 0.05 % (w/v)
